Results published in patent publication US20130317027A1, “COMPOUNDS AND THERAPEUTIC USES THEREOF” (Myrexis, Inc, priority 2010, published 2013).

System: MDA-MB-436 cells
Assay: Synergy between Nampt inhibitors and the PARP inhibitor olaparib in BRCA1-deficient cells
Format: cell-based
Conditions: loss of BRCA1 function
Protocol: Experiments were conducted in HCT116 cells.
This was not fully unexpected, as PARP inhibitors are relatively benign to cells (like HCT116 cells) that have a functional homologous recombination (HR) system to repair double stranded DNA damage (Ashworth A. Journal of Clinical Oncology 26(22):3785-90 (2008)). In fact, the model (FIG. 1A) predicts that inhibiting an enzyme, such as PARP, that consumes NAD^+ would protect HR-proficient cells from Nampt inhibition. However, in cells that have lost the function of BRCA tumor suppressors, HR function is compromised, and these cells are killed by PARP inhibitors (Ashworth A. (2008) Journal of Clinical Oncology 26(22):3785-90). Thus, it was hypothesized that PARP inhibitors, while being antagonistic with Nampt inhibitors in most cells, would be synergistic in cells with BRCA mutations that render the cells HR-deficient (FIG. 1B). Indeed, in MDA-MB-436 cells, which have a loss of BRCA1 function, Nampt inhibitors (a known Nampt inhibitor, Exemplary Compound A and Exemplary Compound I, both Exemplary Compounds identified hereinafter) and the PARP inhibitor olaparib synergized in causing cell death. […] Of further significance to these findings, it is becoming clear that other routes of HR deficiency in oncogenesis (other than BRCA sequence mutation) could also lead to sensitivity to PARP inhibition plus Nampt inhibitor combination therapy. […]

O=C(NCc1cccnc1)Nc1ccc(COc2ccccc2-c2ccccc2)cc1 [Exemplary Compound A]
drug interaction with the PARP inhibitor olaparib in causing cell death: synergized
